In publication PMC8373983, “Effect of salinity on the zinc(II) binding efficiency of siderophore functional groups and implications for salinity tolerance mechanisms in barley” (Scientific Reports, 2021):
Read-outs that look alike come from different tables or passages of the source.

How the values were obtained:
[1] = design: method as in earlier work; conditions: cited from earlier work
[2] = cited from earlier work
[3] = Zinc(II) hydrolysis constants, potentiometric titration in NaCl; assay type: physicochemical; conditions: T = 298.1 K
Method: A 30 ml solution containing each ligand ([L] = 5 – 10 mM), NaCl and HCl was titrated with standard NaOH solutions. For the zinc(II)/ligand systems, the titrant solutions consisted of different amounts of ligand ([L] = 5 − 10 mM), zinc(II) ([Zn] = 0.5—5 mM) and a suitable amount of HCl and NaCl. All the measurements were carried out with an excess of the ligand, with respect to zinc(II) and at different zinc(II):ligand molar ratios. The selection of ratios investigated was determined by simulating titrations using Hyperquad Simulation and Speciation computer software (HySS)[41]. [Zn] and [L] were negligible compared to the background electrolyte concentrations. […] To account for the influence of zinc(II) hydrolysis in the zinc(II)/ligand systems, zinc(II) titrations were carried out separately at each ionic strength to determine the hydroxide constants so that these constants could be included in the equilibrium model used to refine the titration data. In these titrations, the zinc(II) concentration in the analyte solution was 0.7 mM.
The software program Hyperquad was used to determine the equilibrium model and to calculate pKa and stability constants from the potentiometric data set[43]. For each set of pKa constants or zinc(II):ligand ratio studied, at least two repeat titrations were performed. The titration curves for each system were treated as a single set when refining the stability constants. This meant that the refinement procedure was run on both curves at the same time to derive a single set of constants. The error reported on the stability constants is the standard deviation given in the Hyperquad output file. Examples of Hyperquad files for the zinc(II)/PYR system are provided on the Zenodo repository (https://doi.org/10.5281/zenodo.4641710).

[4] = parameter of ionic strength dependence

SMILES: CC(=O)N(O)CCCCCNC(=O)CCC(=O)N(O)CCCCCNC(=O)CCC(=O)N(O)CCCCCN [DFOB, desferrioxamine B]
- log β, 2H+ + L3− = H2L− ([1]; 0.05 M NaCl, T = 298.1 K): 20.94 ± 0.09
- log β, 3H+ + L3− = H3L ([1]; 0.05 M NaCl, T = 298.1 K): 30.05 ± 0.12
- log β, 4H+ + L3− = H4L+ ([1]; 0.05 M NaCl, T = 298.1 K): 38.83 ± 0.14
- log β, H+ + L3− = HL2− ([1]; 0.05 M NaCl, T = 298.1 K): 11.07 ± 0.07
- log β, 2H+ + L3− = H2L− ([1]; 0.15 M NaCl, T = 298.1 K): 20.25 ± 0.06
- log β, 3H+ + L3− = H3L ([1]; 0.15 M NaCl, T = 298.1 K): 29.10 ± 0.09
- log β, 4H+ + L3− = H4L+ ([1]; 0.15 M NaCl, T = 298.1 K): 37.46 ± 0.13
- log β, H+ + L3− = HL2− ([1]; 0.15 M NaCl, T = 298.1 K): 10.74 ± 0.04
- log β, 2H+ + L3− = H2L− ([1]; 0.30 M NaCl, T = 298.1 K): 19.84 ± 0.04
- log β, 3H+ + L3− = H3L ([1]; 0.30 M NaCl, T = 298.1 K): 28.61 ± 0.07
- log β, 4H+ + L3− = H4L+ ([1]; 0.30 M NaCl, T = 298.1 K): 37.00 ± 0.10
- log β, H+ + L3− = HL2− ([1]; 0.30 M NaCl, T = 298.1 K): 10.36 ± .02
- log β, 2H+ + L3− = H2L− ([1]; 0.70 M NaCl, T = 298.1 K): 19.77 ± 0.04
- log β, 3H+ + L3− = H3L ([1]; 0.70 M NaCl, T = 298.1 K): 28.60 ± 0.08
- log β, 4H+ + L3− = H4L+ ([1]; 0.70 M NaCl, T = 298.1 K): 36.97 ± 0.16
- log β, H+ + L3− = HL2− ([1]; 0.70 M NaCl, T = 298.1 K): 10.35 ± 0.02
- log β, 2H+ + L3− = H2L− ([1]; 1.00 M NaCl, T = 298.1 K): 19.77 ± 0.08
- log β, 3H+ + L3− = H3L ([1]; 1.00 M NaCl, T = 298.1 K): 28.57 ± 0.12
- log β, 4H+ + L3− = H4L+ ([1]; 1.00 M NaCl, T = 298.1 K): 36.92 ± 0.14
- log β, H+ + L3− = HL2− ([1]; 1.00 M NaCl, T = 298.1 K): 10.14 ± 0.06
- logβ^0, 2H+ + L3− = H2L− ([1]; intrinsic, T = 298.1 K): 21.530 ± 0.006
- logβ^0, 3H+ + L3− = H3L ([1]; intrinsic, T = 298.1 K): 30.691 ± 0.012
- logβ^0, 4H+ + L3− = H4L+ ([1]; intrinsic, T = 298.1 K): 39.250 ± 0.023
- logβ^0, H+ + L3− = HL2− ([1]; intrinsic, T = 298.1 K): 11.491 ± 0.003
- C, 3H+ + L3− = H3L [1, 4]: 0.194 ± 0.012
- log β, Zn2+ + 2H+ + L3- = ZnH2L+ ([2]; 0.05 M NaCl, T = 298.1 K): 29.30±0.13
- log β, Zn2+ + H+ + L3- = ZnHL ([2]; 0.05 M NaCl, T = 298.1 K): 21.55±0.11
- log β, Zn2+ + L3- = ZnL- ([2]; 0.05 M NaCl, T = 298.1 K): 11.67±0.06
- log β, Zn2+ + 2H+ + L3- = ZnH2L+ ([2]; 0.15 M NaCl, T = 298.1 K): 27.81±0.05
- log β, Zn2+ + H+ + L3- = ZnHL ([2]; 0.15 M NaCl, T = 298.1 K): 19.85±0.04
- log β, Zn2+ + L3- = ZnL- ([2]; 0.15 M NaCl, T = 298.1 K): 9.91±0.02
- log β, Zn2+ + 2H+ + L3- = ZnH2L+ ([2]; 0.30 M NaCl, T = 298.1 K): 27.42±0.08
- log β, Zn2+ + H+ + L3- = ZnHL ([2]; 0.30 M NaCl, T = 298.1 K): 19.85±0.06
- log β, Zn2+ + L3- = ZnL- ([2]; 0.30 M NaCl, T = 298.1 K): 9.97±0.04
- log β, Zn2+ + 2H+ + L3- = ZnH2L+ ([2]; 0.70 M NaCl, T = 298.1 K): 27.19±0.12
- log β, Zn2+ + H+ + L3- = ZnHL ([2]; 0.70 M NaCl, T = 298.1 K): 19.34±0.09
- log β, Zn2+ + L3- = ZnL- ([2]; 0.70 M NaCl, T = 298.1 K): 9.39±0.05
- log β, Zn2+ + 2H+ + L3- = ZnH2L+ ([2]; 1.00 M NaCl, T = 298.1 K): 27.25±0.08
- log β, Zn2+ + H+ + L3- = ZnHL ([2]; 1.00 M NaCl, T = 298.1 K): 19.38±0.06
- log β, Zn2+ + L3- = ZnL- ([2]; 1.00 M NaCl, T = 298.1 K): 9.32±0.04
- decrease of the 1:1 zinc(II) stability constant ([2]; between 0.05 and 1.00 M NaCl): 21%
- logβ0, Zn2+ + 2H+ + L3- = ZnH2L+ ([2]; intrinsic, T = 298.1 K): 29.872±0.027
- logβ0, Zn2+ + H+ + L3- = ZnHL ([2]; intrinsic, T = 298.1 K): 22.105±0.026
- logβ0, Zn2+ + L3- = ZnL- ([2]; intrinsic, T = 298.1 K): 12.027±0.039
- C, Zn2+ + 2H+ + L3- = ZnH2L+ [2, 4]: 0.009±0.051
- C, Zn2+ + H+ + L3- = ZnHL [2, 4]: -0.075±0.053
- C, Zn2+ + L3- = ZnL- [2, 4]: -0.486±0.077

SMILES: [Cl-].[Cl-].[Zn+2] [Zinc(II), ZnCl2]
- log β, Zn2+ + 2OH- = [Zn(OH)2] ([3]; 0.05 M NaCl): 15.40±0.06
- log β, Zn2+ + 3OH- = [Zn(OH)3]- ([3]; 0.05 M NaCl): 25.16±0.09
- log β, Zn2+ + 2OH- = [Zn(OH)2] ([3]; 0.15 M NaCl): 15.76±0.01
- log β, Zn2+ + 3OH- = [Zn(OH)3]- ([3]; 0.15 M NaCl): 26.15±0.04
- log β, Zn2+ + 2OH- = [Zn(OH)2] ([3]; 0.30 M NaCl): 15.77±0.01
- log β, Zn2+ + 3OH- = [Zn(OH)3]- ([3]; 0.30 M NaCl): 26.10±0.03
- log β, Zn2+ + 2OH- = [Zn(OH)2] ([3]; 0.70 M NaCl): 15.93±0.01
- log β, Zn2+ + 3OH- = [Zn(OH)3]- ([3]; 0.70 M NaCl): 26.51±0.04
- log β, Zn2+ + 2OH- = [Zn(OH)2] ([3]; 1.00 M NaCl): 16.05±0.01
- log β, Zn2+ + 3OH- = [Zn(OH)3]- ([3]; 1.00 M NaCl): 26.56±0.03
